US8202910B2 (Sequella, Inc., priority 2006, dated 2012)
Converted amounts (≈) assume the structure as drawn. Like-named read-outs stand apart in the source and are kept apart here.

Legend:
[1] = tested on: wild type of M.tb; assay: MIC, secondary screening, wild type; assay type: cell-based, Mycobacterium tuberculosis; conditions: Mycobacterium tuberculosis, WT
[2] = tested on: H37Rv strain of Mycobacterium tuberculosis; assay: microbe, parasite or virus in culture; assay type: cell-based; conditions: Mycobacterium tuberculosis, H37RV, read-out: MIC
[3] = tested on: M. tuberculosis H37Rv; assay: MIC by BACTEC 460; assay type: cell-based, Mycobacterium tuberculosis; conditions: Mycobacterium tuberculosis, H37RV; read-out: MIC (BACTEC)
[4] = tested on: M. tuberculosis H37Rv; assay: In vivo efficacy, mice infected i.v. with M. tuberculosis, CFU in spleen and lungs; parameters: species or system C57BL/6 mice
[5] = tested on: RIF^R M. tuberculosis isolate 3185; assay: microbe, parasite or virus in culture; assay type: cell-based; conditions: strain 3185
[6] = tested on: RIF^R M. tuberculosis isolate 2482; assay: microbe, parasite or virus in culture; assay type: cell-based; conditions: strain 2482
[7] = tested on: cells; assay: LD50 for selectivity index (Table 10); assay type: cell-based, Mycobacterium tuberculosis
Text: Table 10 lists MIC and LD50 data for selected compounds. […] Table 11 lists MIC data for purified substituted ethylene diamines in comparison to ethambutol (EMB).

[8] = tested on: monkey kidney cells (Vero); assay: In vitro toxicity, Vero cells; assay type: cell-based; conditions: Primates
Description: Twenty six compounds (including 37, 59 and 109) were tested in an in vitro model of toxicity using monkey kidney cells (Vero) and human cervical cancer cells (HeLa) using methods well known to those skilled in the art. The data from this toxicity testing and the MIC data were used to calculate a selectivity index (SI), the ratio of IC50:MIC (Table 15). Selectivity Indexes were ranging from 1.76 to 16.67.

[9] = Toxicity, dose escalation study in mice; conditions: C57BL/6, mouse, in vivo
Description: Toxicity was assessed using a dose escalation study. This study was performed with ten C57BL/6 mice per candidate. Every two days, the mice were administered an increased concentration of the drug, and monitored for detrimental effects. The administration scheme was 50, 100, 200, 400, 600, 800 and 1000 mg/kg.

[10] = assay type: in vitro ADME; conditions: 6 h
Description: (§1) Initially, analytical methods for determination of the compounds had been developed that allowed to carry out all the PK experiments, sec FIG. 29. Here is a brief description of the experiment: (1) plasma spiked with tested compounds and 10 uL of Terfenadine or plasma samples (200 uL) added; (2) ACN (2 mL) added to precipitate protein and spin at 2,500 rpm; (3) evaporate supernatant to dryness; (4) add 200 uL of the diluting solvent: methanol (with 0.1% of trifluoroacetic acid): ammonium acetate (80/20); (5) vortex, spin, and use supernatant; (6) run LC/MS/MS on Sciex API 3000.
Biostability studies of the compounds in plasma were carried out using concentrations 1 and 15 mg/ml. The compounds were incubated for 1, 2, 3 & 6 hr at 37° C. (Table 18).

[11] = in vivo; parameters: species or system mice; conditions: mouse
Description: as §1
Pilot PK study of the compounds 37, 59, and 109 in mice was conducted using a cassette dosing: all the three analogs were formulated together in saline at 1.5 mg/mL, and administered to mice simultaneously orally at 25 mg/kg, peritoneally at 6 mg/kg, and intravenously. […] Obtained data are presented on FIGS. 30, 31, and 32 (tested compounds were studied under the NCI′ indexation NSC) and summarized in Table 19.

[12] = EMB, RL241, Cmpd#59 as 2HCl salt, Cmpd#109 as 2CF3COOH salt, read-out: MIC

**Q.** For C[C@@H]1C2C[C@@H](C[C@H]1NCCNC[C@@H]1CCC3C[C@@H]1C3(C)C)C2(C)C [MP 117], which MIC [1, 12] is on record?
**A.** 6.25 µg/mL

**Q.** With NNC(=O)c1ccncc1 [INH, Isoniazid] as the molecule, how does the MIC [2] read?
**A.** 0.91 µM

**Q.** What about the MIC [3] of the same molecule?
**A.** 0.025 µg/mL (≈ 0.182 µM)

**Q.** And the “activity in spleen and lung, rank among drugs” value ([4]; INH 25 mg/kg)?
**A.** the most active drug in both spleen and lung

**Q.** What about the “decrease of load of bacteria in organs” value ([4]; during 4-6 weeks of chemotherapy) of the same molecule?
**A.** 2-3 logs

**Q.** And the “concentration to which the strain was susceptible” value [5]?
**A.** 0.1 mg/L

**Q.** And the “concentration to which the strain was susceptible” value [6]?
**A.** 0.1 mg/L

**Q.** With C[C@@H]1[C@H]2C[C@@H](C[C@H]1NCCNC1CCCCCCC1)C2(C)C [Compound 59, N-(Cyclooctyl)-N′-(1R, 2R, 3R, 5S)-(−)-isopinocampheylethane-1,2-diamine] as the molecule, how does the MIC ([2]; Table 10, from uM and MW) read?
**A.** 6.66 µg/mL

**Q.** And the MIC ([2]; Table 10)?
**A.** 15.6 µM

**Q.** And the MIC ([2]; Table 15)?
**A.** 15.6 µM

**Q.** What about the “SI (Selectivity Index)” value ([7]; LD50 : MIC) of the same molecule?
**A.** 2.048

**Q.** And the “LD50” value ([7]; concentration at which 50% of the cells are killed)?
**A.** 32 µM

**Q.** What about the “LD50” value ([7]; from uM and MW) of the same molecule?
**A.** 13.632 µg/mL

**Q.** What about the MIC ([1]; value in brackets, read-out: MIC (or uM)) of the same molecule?
**A.** 0.13 µM

**Q.** What about the MIC [1, 12] of the same molecule?
**A.** 0.05 µg/mL

**Q.** What about the IC50 [8] of the same molecule?
**A.** 36 µM

**Q.** What about the tolerated dose [9] of the same molecule?
**A.** 1000 mg/kg

**Q.** And the “anti-tuberculosis activity compared with EMB” value ([4]; 10 mg/kg, B6 mice, 5×10^5 CFU, chemotherapy from day 20)?
**A.** comparable to that of EMB at 100 mg/kg

**Q.** What about the “Biostability in plasma (% ↓)” value ([10]; dog) of the same molecule?
**A.** stable

**Q.** What about the “Biostability in plasma (% ↓)” value ([10]; human) of the same molecule?
**A.** stable

**Q.** And the “Biostability in plasma (% ↓)” value ([10]; mouse)?
**A.** stable

**Q.** And the “Biostability in plasma (% ↓)” value ([10]; rat)?
**A.** stable

**Q.** And the “PK profiling (AUC, Cmax)” value [11]?
**A.** relatively poor PK profiling

**Q.** What about the AUC ([11]; ip, 6 mg/kg) of the same molecule?
**A.** 272 ng·h/mL

**Q.** And the Cmax ([11]; ip, 6 mg/kg)?
**A.** 217 ng/mL

**Q.** What about the “Urine excretion (%)” value ([11]; ip, 6 mg/kg) of the same molecule?
**A.** <0.01%

**Q.** And the bioavailability ([11]; ip, 6 mg/kg)?
**A.** 35%

**Q.** And the half-life ([11]; ip, 6 mg/kg)?
**A.** 9.7 h

**Q.** What about the AUC ([11]; iv, 3 mg/kg) of the same molecule?
**A.** 384 ng·h/mL

**Q.** And the Cmax ([11]; iv, 3 mg/kg)?
**A.** 296 ng/mL

**Q.** What about the “Urine excretion (%)” value ([11]; iv, 3 mg/kg) of the same molecule?
**A.** 1.9%

**Q.** And the clearance ([11]; iv, 3 mg/kg)?
**A.** 134 mL/min/kg

**Q.** And the half-life ([11]; iv, 3 mg/kg)?
**A.** 6.4 h

**Q.** What about the AUC ([11]; po, 25 mg/kg) of the same molecule?
**A.** 169 ng·h/mL

**Q.** What about the Cmax ([11]; po, 25 mg/kg) of the same molecule?
**A.** 28.7 ng/mL

**Q.** And the bioavailability ([11]; po, 25 mg/kg)?
**A.** 0.9%

**Q.** For CC1(C)CC2CC(C)(CN2CCNC[C@@H]2CCC3C[C@@H]2C3(C)C)C1 [MP 116], which MIC [1, 12] is on record?
**A.** 6.25 µg/mL
